Patent US8865623B2, “Herbicidally active cyclic diones and derivatives thereof, processes for their preparation, compositions, and method of controlling weeds” (Syngenta Limited, priority 2009, dated 2014)

Assays:
Format in all cases: in vivo
[1] = test system: Alopecurus myosuroides (ALOMY); experiment: Pre-emergence herbicidal activity, glasshouse pot test; conditions: Alopecurus myosuroides, 312 h; Rate 250 g/ha; pre-emergence spray; evaluated after 13 days; read-out: Pre-emergence activity ALOMY (100=total damage to plant; 0=no damage to plant)
Description: (§1) Seeds of a variety of test species were sown in standard soil in pots. After cultivation for one day (pre-emergence) or after 8 days cultivation (post-emergence) under controlled conditions in a glasshouse (at 24/16° C., day/night; 14 hours light; 65% humidity), the plants were sprayed with an aqueous spray solution derived from the formulation of the technical active ingredient in acetone/water (50:50) solution containing 0.5% Tween 20 (polyoxyethelyene sorbitan monolaurate, CAS RN 9005-64-5). The test plants were then grown in a glasshouse under controlled conditions in a glasshouse (at 24/16° C., day/night; 14 hours light; 65% humidity) and watered twice daily. After 13 days for pre and post-emergence, the test was evaluated (100=total damage to plant; 0=no damage to plant).
(§2) Lolium perenne (LOLPE), Alopecurus myosuroides (ALOMY), Echinochloa crus-galli (ECHCG), and Avena fatua (AVEFA).

Avena fatua (AVEFA) [2] = experiment: as above; conditions: Avena fatua, 312 h; Rate 250 g/ha; pre-emergence spray; evaluated after 13 days; read-out: Pre-emergence activity AVEFA (100=total damage to plant; 0=no damage to plant)
Description: as §1, §2

[3] = test system: Echinochloa crus-galli (ECHCG); experiment: as above; conditions: Echinochloa crus-galli, 312 h; Rate 250 g/ha; pre-emergence spray; evaluated after 13 days; read-out: Pre-emergence activity ECHCG (100=total damage to plant; 0=no damage to plant)
Description: as §1, §2

Lolium perenne (LOLPE) [4] = experiment: as above; conditions: Lolium perenne, 312 h; Rate 250 g/ha; pre-emergence spray; evaluated after 13 days; read-out: Pre-emergence activity LOLPE (100=total damage to plant; 0=no damage to plant)
Description: as §1, §2

[5] = test system: Alopecurus myosuroides (ALOMY); experiment: Post-emergence herbicidal activity, glasshouse pot test; conditions: Alopecurus myosuroides, 312 h, rate 250 g/ha, evaluated after 13 days, glasshouse, read-out: Post-emergence activity ALOMY (100=total damage to plant; 0=no damage to plant)
Description: as §1, §2

Avena fatua (AVEFA) [6] = experiment: as above; conditions: Avena fatua, 312 h, rate 250 g/ha, evaluated after 13 days, glasshouse, read-out: Post-emergence activity AVEFA (100=total damage to plant; 0=no damage to plant)
Description: as §1, §2

[7] = test system: Echinochloa crus-galli (ECHCG); experiment: as above; conditions: Echinochloa crus-galli, 312 h, rate 250 g/ha, evaluated after 13 days, glasshouse, read-out: Post-emergence activity ECHCG (100=total damage to plant; 0=no damage to plant)
Description: as §1, §2

Lolium perenne (LOLPE) [8] = experiment: as above; conditions: Lolium perenne, 312 h, rate 250 g/ha, evaluated after 13 days, glasshouse, read-out: Post-emergence activity LOLPE (100=total damage to plant; 0=no damage to plant)
Description: as §1, §2

SMILES | pest or weed control at 250 g/ha [1] [%] | pest or weed control at 250 g/ha (Avena fatua (AVEFA) [2]) [%] | pest or weed control at 250 g/ha [3] [%] | pest or weed control at 250 g/ha (Lolium perenne (LOLPE) [4]) [%] | pest or weed control at 250 g/ha [5] [%] | pest or weed control at 250 g/ha (Avena fatua (AVEFA) [6]) [%] | pest or weed control at 250 g/ha [7] [%] | pest or weed control at 250 g/ha (Lolium perenne (LOLPE) [8]) [%]
CCc1ccc(Oc2ccc(Br)c(Cl)c2)cc1C1=C(O)C(C)(C)OC(C)(C)C1=O [Example A-10] | 0 | 20 | 90 | 30 | 100 | 90 | 100 | 100
CCc1ccc(Oc2ccc(Br)c(C)c2)cc1C1=C(O)C(C)(C)OC(C)(C)C1=O [Example A-11] | 0 | 0 | 0 | 0 | 50 | 20 | 60 | 50
CCc1ccc(Oc2ccc(Br)cc2C)cc1C1=C(O)C(C)(C)OC(C)(C)C1=O [Example A-12] | 0 | 0 | 0 | 0 | 20 | 0 | 70 | 50
CCc1ccc(Oc2ccccc2F)cc1C1=C(O)C(C)(C)OC(C)(C)C1=O [Example A-13] | 0 | 0 | 0 | 0 | 0 | 0 | 70 | 0
CCc1ccc(Oc2ccc(F)cc2F)cc1C1=C(O)C(C)(C)OC(C)(C)C1=O [Example A-14] | 0 | 0 | 0 | 0 | 0 | 10 | 100 | 40
CCc1ccc(Oc2ccc(Cl)cc2F)cc1C1=C(O)C(C)(C)OC(C)(C)C1=O [Example A-15] | 100 | 60 | 100 | 100 | 90 | 70 | 100 | 100
CCc1ccc(Oc2cccc(F)c2F)cc1C1=C(O)C(C)(C)OC(C)(C)C1=O [Example A-16] | 0 | 0 | 100 | 0 | 0 | 0 | 80 | 20
CCc1ccc(Oc2ccc(Cl)cc2Cl)cc1C1=C(O)C(C)(C)OC(C)(C)C1=O [Example A-19] | 50 | 70 | 100 | 80 | 60 | 60 | 100 | 90
CCc1ccc(Oc2ccc([N+](=O)[O-])cc2F)cc1C1=C(O)C(C)(C)OC(C)(C)C1=O [Example A-20] | 40 | 20 | 100 | 0 | 0 | 70 | 80 | 50
CCc1ccc(Oc2ccc(C#N)cc2F)cc1C1=C(O)C(C)(C)OC(C)(C)C1=O [Example A-21] | 0 | 0 | 30 | 20 | 100 | 60 | 100 | 70
